Laboratory results published in patent US20230016007A1, “SOLUTIONS AND METHODS FOR FORMING AN EXOGENOUS FLEXIBLE FILM, WHICH INCLUDES A SUPPLEMENTAL COMPONENT, ON A PLANT AND PLANTS INCLUDING THE EXOGENOUS FLEXIBLE FILM” (Cultiva, LLC, priority 2017, published 2023).

System: grey mold (Botrytis cinerea)
Test: grey mold on Frontelis strawberries 7 days post-harvest (FIG. 11)
Experimental: The four groups were evaluated for infestation with grey mold 7 days post-harvest.

With `CC1(C(=O)Nc2ccc(O)c(Cl)c2Cl)CCCCC1` [Fenhexamid] the “infestation with grey mold” value was “exhibited at least some infestation”.
